Reference: patent US20230251278A1, “ACQUISITION METHOD OF VALUE RELATING TO TRIGLYCERIDE METABOLIC CAPACITY, PRESENTATION METHOD OF DISEASE INFORMATION, PRESENTATION METHOD OF DISEASE DIFFERENTIATION INFORMATION, PRESENTATION METHOD OF THERAPY EFFICACY INFORMATION, PRESENTATION METHOD OF THERAPEUTIC EFFECT INFORMATION, TEST REAGENT …” (OSAKA UNIVERSITY, priority 2020, published 2023)

Experiments:
[1] = tested on: leucocytes (neutrophils, monocytes, lymphocytes); test: Uptake and excretion of Alexa Fluor 680-BMPP by leucocytes of healthy individuals and primary TGCV patients (FACS); format: cell-based, human
Description: 5.5 ml of whole blood collected from healthy individuals and patients using the blood collection tube containing heparin was added with the leucocyte separating agent (HetaSep, Veritas Corporation) in an amount of one fifth of the whole blood, leucocytes were collected according to a manufacturer's instruction, and the cells were resuspended in 2.1 ml of DMEM medium without serum (hereinafter, DMEM serum-free medium). Alexa Fluor™ 680-BMPP uptake ability and Alexa Fluor™ 680-BMPP excretion ability of the leucocytes were measured using 400 μl each as described below.
40 μl of the Alexa Fluor™ 680-BMPP or 40 μl of the Alexa Fluor™ 680 was added to 400 μl of the cell resuspension so that a final concentration of the Alexa Fluor™ 680-BMPP or the Alexa Fluor™ 680 was 0.067 μM, and a reaction for uptake the fluorescence-labeled substance was performed by standing at room temperature for 30 minutes. A sample for measurement immediately after the uptake was added with BD FACS Lysing Solution immediately after the reaction to be hemolyzed and then, subjected to FACS. On the other hand, as for a sample for measurement of excretion, the Alexa Fluor™ 680-BMPP or the Alexa Fluor™ 680 was removed from the sample by centrifugation at room temperature, cells were resuspended in 500 μl of DMEM serum-free medium, and the cells were allowed to stand at 37° C. for 2 hours to be subjected to an excretion reaction of the taken Alexa Fluor™ 680-BMPP or Alexa Fluor™ 680, then BD FACS Lysing Solution was added, and the sample was subjected to FACS in the same manner as the sample immediately after the uptake. FACS analysis was performed in the same manner as described in the experimental example 2, and for each of neutrophils, monocytes, and lymphocytes, fluorescence intensity of the sample immediately after uptake was compared with fluorescence intensity of the sample for measurement of excretion.

[2] = tested on: leucocytes (neutrophils) of the case 1 patient; test: Ability of leucocytes to excrete Alexa Fluor 680-BMPP before and after tricaprin treatment; format: in vivo, human
Description: Next, the abilities for taking up and for excreting the Alexa Fluor™ 680-BMPP were compared using whole blood collected from the patients in the case 1 described in the above 6-2. before and after the tricaprin treatment.
Preparation of the leucocyte and measurement of the abilities for taking up and for excreting the Alexa Fluor™ 680-BMPP using the leucocyte cells were performed according to the experimental examples.

[3] = tested on: leucocytes (neutrophils, monocytes, lymphocytes); test: Uptake of fluorescence-labeled BMPP by leucocytes in whole blood (FACS); format: cell-based, human; conditions: monocytes and lymphocytes, whole blood of healthy individual, 0.0074, 0.022, 0.067, 0.2 μM, room temperature 30 minutes
Description: Each 200 μl of whole blood collected from a healthy individual using a blood collection tube containing heparin was used as a sample. As a fluorescent-labeled BMPP-added group, the Alexa Fluor™ 680-BMPP prepared in the experimental example 1 was added to the samples so that a final concentration of the Alexa Fluor™ 680-BMPP was 0.0074 μM, 0.022 μM, 0.067 μM, and 0.2 μM, respectively. As a negative control group, Alexa Fluor™ 680 NHS Ester hydrolysate (hereinafter, simply referred to as Alexa Fluor™ 680) was added to the samples so that a final concentration of the Alexa Fluor™ 680 was 0.0074 μM, 0.022 μM, 0.067 μM, and 0.2 μM, respectively. […]
After the uptake is completed, 2 ml of BD FACS Lysing Solution (BD Biosciences) was added to the sample, and the mixture was allowed to stand at room temperature for 30 minutes to hemolyze erythrocytes, and then leucocytes were collected as precipitates by centrifugation at room temperature at 1500 rpm for 30 minutes, and resuspended in PBS to prepare a sample for FACS analysis. The FACS analysis was performed by preparing gates containing lymphocytes, monocytes, or neutrophils in advance by dot plots of forward-scattered light and side-scattered light using leucocytes prepared in the same manner without adding the Alexa Fluor™ 680-BMPP, and measuring the number of cells until […] cells were counted in the gate. […]

[4] = tested on: leucocytes (neutrophils, monocytes, lymphocytes); test: Influence of excretion time on Alexa Fluor 680-BMPP excretion amount (FACS); format: cell-based, human; conditions: leucocytes of two healthy individuals; 0.067 μM; 37° C.; histograms did not shift from 10 to 120 minutes
Description: 6 ml of each whole blood collected from two healthy individuals using the blood collection tube containing heparin was added with the HetaSep (Veritas Corporation) in an amount of one fifth of the whole blood, leucocytes were collected according to the manufacturer's instruction, and the cells were resuspended in 2.1 ml of the DMEM serum-free medium. Alexa Fluor™ 680-BMPP uptake ability and Alexa Fluor™ 680-BMPP excretion ability of the leucocytes were measured using 400 μl each as described below.
40 μl of the Alexa Fluor™ 680-BMPP was added to 400 μl of the cell resuspension so that a final concentration of the Alexa Fluor™ 680-BMPP was 0.067 μM, and a reaction for uptake the Alexa Fluor™ 680-BMPP was performed by standing at room temperature for 30 minutes. A sample for measurement immediately after the uptake was added with BD FACS Lysing Solution immediately after the reaction to be hemolyzed and then, subjected to FACS. […] FACS analysis was performed in the same manner as described in the experimental example 2, and for each of neutrophils, monocytes, and lymphocytes, fluorescence intensities at each excretion time were compared each other.

[5] = tested on: triglyceride deposit-type atherosclerosis of the coronary artery; test: MCT dietary therapy: coronary artery CT evaluation of fat accumulated in coronary arteries; format: in vivo, human
Description: A person with genetic ATGL (Adipose triglyceride lipase) deficiency. Since it was confirmed that the patient was suffering from triglyceride deposit-type atherosclerosis by coronary CT inspection, MCT dietary therapy was started. The patient ingested 6 to 9 g of tricaprin as the MCT per 1 day, 3 times a day after meals for 50 days.
Before the start of the MCT dietary therapy and after 50 days from the start of the MCT dietary therapy, normal coronary artery CT was performed to acquire a three-dimensional DICOM image of the left anterior descending branch. The samples were resampled in 0.1 mm^3 of voxels and layer-by-layer coloring was performed based on intra-voxel CT values. Smoothing was performed between voxels. The layer-by-layer coloring was performed as follows.
Light gray: between −25 HU to 0 HU (fat content is high) Middle gray 0 HU to 40 HU (fat content is medium) Dark gray: 40 HU to 125 HU (no fat) (iii) Results
A person who has suffered from refractory angina pectoris for years. Even when a combination treatment of a plurality of antianginal drugs and statins or the like was performed, the angina pectoris was rather exacerbated. Since it was confirmed that the patient was suffering from triglyceride deposit-type atherosclerosis by coronary CT inspection, MCT dietary therapy was started. The patient ingested 1.5 g of tricaprin as the MCT per 1 day, 3 times a day after meals for 4 years.
Before the start of the MCT dietary therapy and after 4 years from the start of the MCT dietary therapy, normal coronary artery CT was performed, and the layer-by-layer coloring of the inside of the left anterior descending branch was performed in the same manner as described in the case 1.

Molecule | ability to excrete the Alexa Fluor 680-BMPP, primary TGCV patient versus healthy individuals ([1]; leucocytes, overall conclusion) | ability to excrete the Alexa Fluor 680-BMPP (leftward shift of fluorescence intensity) ([1]; lymphocytes of healthy individuals, 0.067 μM, excretion 37° C. 2 hours) | ability to excrete the Alexa Fluor 680-BMPP compared to healthy individuals ([1]; lymphocytes of primary TGCV patients, 0.067 μM, excretion 37° C. 2 hours) | ability to excrete the Alexa Fluor 680-BMPP (leftward shift of histogram) ([1]; neutrophils of healthy individuals, 0.067 μM, excretion 37° C. 2 hours) | ability to excrete the Alexa Fluor 680-BMPP compared to healthy individuals ([1]; neutrophils of primary TGCV patients, 0.067 μM, excretion 37° C. 2 hours) | ability for excreting the Alexa Fluor 680-BMPP compared to healthy individuals ([2]; leucocytes (neutrophils) of case 1 patient before the start of the treatment) | uptake amount of the Alexa Fluor 680-BMPP (shift of fluorescence intensity histogram) [3] | excretion time at which the taken Alexa Fluor 680-BMPP was sufficiently excreted (almost background) [4] [min] | ability for excreting the Alexa Fluor 680-BMPP in the patient after the treatment ([2]; case 1 patient leucocytes after tricaprin (MCT dietary therapy) treatment) | effect on triglyceride deposit-type atherosclerosis of the coronary artery (coronary CT) ([5]; case 1: genetic ATGL deficiency, 6 to 9 g per day, 50 days) | effect on triglyceride deposit-type atherosclerosis of the coronary artery (coronary CT) ([5]; case 2: refractory angina pectoris, 1.5 g per day, 4 years) | diameter of the blood flow site (coronary CT) ([5]; case 2, 1.5 g per day, 4 years)
15-phenyl-3-methylpentadenoic acid labeled with Alexa Fluor™ 680 [Alexa Fluor™ 680-BMPP] | lower | demonstrated | reduced | sufficiently demonstrated | clearly reduced | clearly reduced | concentration dependent increase | 10 | – | – | – | –
CCCCCCCCCC(=O)OCC(COC(=O)CCCCCCCCC)OC(=O)CCCCCCCCC [tricaprin] | – | – | – | – | – | – | – | – | restored to the same level as in healthy individuals | regression | regression | significantly increased
